Assay results as given in US6967196B1, “Sulfonamide compounds and uses thereof” (Bristol-Myers Squibb Company, priority 1999, dated 2005).
Structures can show the parent of a compound that is named as a salt. Where two headings read alike, the source gives them in different places. Blank lines part the entries; values can stand above or below the compound they belong to.

System: amyloid β production in transfected H4 (human neuroglioma) cells stably expressing APP constructs
Test: In vitro cell-based assay of inhibitors of amyloid β production (ELISA)
Settings: amyloid β in medium by ELISA, read-out: ACTIVITY (IC50, inhibition of amyloid β production)
Outline: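 Aβ secreted into the medium was read by sandwich ELISA (monoclonal capture for the Aβ C-terminus, polyclonal detection for the N-terminus) and calibrated on a standard curve. Before this, APP-expressing H4 cells were exposed to compound for ~16 h at an initial 10-100 μM, with actives then retested in dose-response.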

[1] = Homo sapiens, 16 h, transfected H4 cells stably expressing APP, approximately 16 hours incubation
[2] = transfected H4 cells stably expressing APP, approx. 16 h incubation
[3] = Homo sapiens, 16 h, transfected H4 cells stably expressing APP constructs, approximately 16 hours incubation
[4] = Homo sapiens, 16 h, transfected H4 cells stably expressing APP, approx. 16 h incubation
[5] = Homo sapiens, 16 h, transfected H4 cells expressing APP, approximately 16 hours incubation
[6] = transfected H4 cells stably expressing APP constructs, approximately 16 hours incubation
[7] = transfected H4 cells stably expressing APP, approximately 16 hours incubation

IC50 [1]: > 500 nM
Compound: O=S(=O)(c1ccc(Cl)cc1)N(Cc1ccccc1OCCCN1CCNCC1)c1ccccc1 [Example 944, 4-chloro-N-phenyl-N-{2-[3-(1-piperazinyl)propoxy]benzyl}benzenesulfonamide dihydrochloride]

IC50 [2]: 100 to 500 nM
Compound: N-{3-[2-(1-{[(4-chlorophenyl)sulfonyl]-2,5-difluoroanilino}ethyl)phenoxy]propyl}-2,4-dimethoxy-N-methylbenzamide [Example 753]

IC50 [3]: > 500 nM
Compound: CC([C@@H]1CCCN1C(=O)OC(C)(C)C)N(c1cc(Cl)ccc1Cl)S(=O)(=O)c1ccc(Cl)cc1 (stereo in doubt) [Example 1255, 4-chloro-N-(2,5-dichlorophenyl)-N-[1-(S)-[1-[(1,1-dimethylethoxy)carbonyl]pyrrolidin-2-yl]ethyl]benzenesulfonamide]

IC50 [3]: ≤ 25 nM
Compound: C[C@H](CCCS(=O)(=O)N(C)C)N(c1cc(Cl)ccc1Cl)S(=O)(=O)c1ccc(Cl)cc1 [Example 1201, 4-chloro-N-[2,5-dichlorophenyl]-N-[4-[(dimethylamino)sulfonyl]-1(R)-methylbutyl]benzenesulfonamide]

IC50 [2]: 100 to 500 nM
Compound: CCCCC(=O)N(CC)CC(C)Oc1ccccc1C(C)N(c1cc(F)ccc1F)S(=O)(=O)c1ccc(Cl)cc1 (stereo not shown) [Example 777, N-{2-[2-(1-{[(4-chlorophenyl)sulfonyl]-2,5-difluoroanilino}ethyl)phenoxy]propyl}-N-ethylpentamide]

Compound: C[C@H](C(=O)N[C@@H]1CC2CCC1C2)N(c1cc(Cl)ccc1F)S(=O)(=O)c1ccc(Cl)cc1 (stereo partly shown) [Example 627]
IC50 [2]: 100 to 500 nM

IC50 [4]: 100 to 500 nM
Compound: O=[N+]([O-])c1ccc([S+]([O-])CCCOc2ccccc2CN(c2cc(F)ccc2F)S(=O)(=O)c2ccc(Cl)cc2)cc1 (stereo not shown) [Example 689, 4-chloro-N-(2,5-difluorophenyl)-N-(2-{3-[(4-nitrophenyl)sulfinyl]propoxy}benzyl)benzenesulfonamide]

IC50 [3]: ≤ 25 nM
Compound: C[C@H](COC(=O)N1CCCC1)N(c1cc(F)ccc1F)S(=O)(=O)c1ccc(Cl)cc1 [Example 1238, 4-Chloro-N-(2,5-difluorophenyl)-N-[2-[[[pyrrolidin-1-yl]carbonyl]oxy]-R-1-methylethyl]benzenesulfonamide]

IC50 [5]: > 500 nM
Compound: CCCCN(CCCC)CCCNC(=O)[C@@H](C)N(c1cc(Cl)ccc1F)S(=O)(=O)c1ccc(Cl)cc1 [Example 1333]

IC50 [3]: > 10000 nM
Compound: CS(=O)(=O)c1ccc(N(Cc2ccccc2OCCCN2CCCCC2)S(=O)(=O)c2ccc(Cl)cc2)cc1 [Example 1094, 4-chloro-N-[4-(methylsulfonyl)phenyl]-N-{2-[3-(1-piperidinyl)propoxy]benzyl}benzenesulfonamide hydrochloride]

Compound: C[C@H](CCCS(C)(=O)=O)N(c1cc(Cl)ccc1F)S(=O)(=O)c1ccc(Cl)cc1 [Example 1165, 4-chloro-N-[5-chloro-2-fluorophenyl]-N-[1(R)-methyl-(4-methylsulfonyl)butyl]benzenesulfonamide]
IC50 [6]: ≤ 25 nM

IC50 [2]: 100 to 500 nM
Compound: N-{3-[2-({[(4-chlorophenyl)sulfonyl]-2,5-difluoroanilino}methyl)phenoxy]propyl}-N,3-dimethylbenzamide [Example 696]

IC50 [2]: 100 to 500 nM
Compound: 2-((1R)-1-{[(4-chlorophenyl)sulfonyl]-2,5-difluoroanilino}ethyl)-5-fluorobenzyl bis(2-methoxyethyl)carbamate [Example 760]

Compound: COC(=O)[C@@H](N)CS(=O)(=O)CCCc1cc(F)ccc1[C@@H](C)N(c1cc(F)ccc1F)S(=O)(=O)c1ccc(Cl)cc1 [Example 487, Methyl (2R)-2-amino-3-({3-[2-((1R)-1-{[(4-chlorophenyl)sulfonyl]-2,5-difluoroanilino}ethyl)-5-fluorophenyl]propyl}sulfonyl)propanoate Hydrochloride]
IC50 (transfected H4 cells stably expressing APP, approximately 16 hours incubation, Table B): 100 to 500 nM

IC50 [4]: 100 to 500 nM
Compound: O=C(c1cccc2ccccc12)N1CCCCC1CCOc1ccccc1CN(c1cc(F)ccc1F)S(=O)(=O)c1ccc(Cl)cc1 (stereo not shown) [Example 792, 4-chloro-N-(2,5-difluorophenyl)-N-(2-{2-[1-(1-naphthoyl)-2-piperidinyl]ethoxy}benzyl)benzenesulfonamide]

IC50 [2]: 100 to 500 nM
Compound: methyl (2S)-2-[[2-((1R)-1-{[(4-chlorophenyl)sulfonyl]-2,5-difluoroanilino}ethyl)benzyl](methyl)amino]propanoate [Example 779]

IC50 [5]: > 500 nM
Compound: C[C@H](C(=O)NC1Cc2ccccc2C1)N(c1cc(Cl)ccc1F)S(=O)(=O)c1ccc(Cl)cc1 [Example 1310]

IC50 [7]: 100 to 500 nM
Compound: 2,4-dichloro-N-{3-[2-(1-{[(4-chlorophenyl)sulfonyl]-2,5-difluoroanilino}ethyl)phenoxy]propyl}-N-methylbenzamide [Example 839]

IC50 [2]: 100 to 500 nM
Compound: N-{3-[2-(1-{[(4-chlorophenyl)sulfonyl]-2,5-difluoroanilino}ethyl)phenoxy]propyl}-2,3,4,5-tetrafluoro-N-methylbenzamide [Example 778]

IC50 [3]: ≤ 25 nM
Compound: C[C@H](CCCS(=O)(=O)N(C)C)N(c1cc(F)ccc1F)S(=O)(=O)c1ccc(Cl)cc1 [Example 1206, 4-chloro-N-[2,5-difluorophenyl]-N-[4-[(dimethylamino)sulfonyl]-1(R)-methylbutyl]benzenesulfonamide]

IC50 (Homo sapiens, 16 h, transfected H4 cells stably expressing APP, approximately 16 hours incubation, Table B): 50 to 100 nM
Compound: CC(c1ccccc1OCCCNC(=O)c1c(F)cccc1F)N(c1cc(F)ccc1F)S(=O)(=O)c1ccc(Cl)cc1 (stereo not shown) [Example 408, N-{3-[2-(1-{[(4-chlorophenyl)sulfonyl]-2,5-difluoroanilino}ethyl)phenoxy]propyl}-2,6-difluorobenzamide]

Compound: C[C@H](CCCS(=O)(=O)N(C)C1CCCC1)N(c1cc(Cl)ccc1Cl)S(=O)(=O)c1ccc(Cl)cc1 [Example 1215, 4-chloro-N-[2,5-dichlorophenyl]-N-[4-[[(N-cyclopentyl)methylamino]sulfonyl]-1(R)-methylbutyl]benzenesulfonamide]
IC50 [6]: 25 to 50 nM

Compound: CCS(=O)(=O)CCC[C@@H](C)N(c1cc(F)ccc1F)S(=O)(=O)c1ccc(Cl)cc1 [Example 1166, 4-chloro-N-[2,5-difluorophenyl]-N-[1(R)-methyl-(4-ethylsulfonyl)butyl]benzenesulfonamide]
IC50 [6]: ≤ 25 nM

IC50 [7]: > 500 nM
Compound: 2-((1R)-1-{[(4-chlorophenyl)sulfonyl]-2,5-difluoroanilino}ethyl)-5-fluorobenzyl 2-(1-pyrrolidinyl)ethylcarbamate [Example 914]

Compound: CSCCC[C@@H](C)N(c1cc(Cl)ccc1Cl)S(=O)(=O)c1ccc(Cl)cc1 [Example 1176, 4-chloro-N-[2,5-dichlorophenyl]-N-[1(R)-methyl-(4-methylthio)butyl]benzenesulfonamide]
IC50 [6]: ≤ 25 nM

IC50 [1]: > 500 nM
Compound: CC(COc1ccccc1C(C)N(c1cc(F)ccc1F)S(=O)(=O)c1ccc(Cl)cc1)N(C)S(=O)(=O)c1ccc(Cl)cc1 (stereo not shown) [Example 885, 4-chloro-N-[1-(2-{2-[[(4-chlorophenyl)sulfonyl](methyl)amino]propoxy}phenyl)ethyl]-N-(2,5-difluorophenyl)benzenesulfonamide]

Compound: CC[S+]([O-])CCC[C@@H](C)N(c1cc(Cl)ccc1F)S(=O)(=O)c1ccc(Cl)cc1 (stereo partly drawn) [Example 1160, 4-chloro-N-(5-chloro-2-fluorophenyl)-N-[1(R)-methyl-(4-ethylsulfinyl)butyl]benzenesulfonamide]
IC50 [6]: ≤ 25 nM

IC50 [5]: > 500 nM
Compound: CCC(C)(C)c1ccc(OCCCCNC(=O)[C@@H](C)N(c2cc(Cl)ccc2F)S(=O)(=O)c2ccc(Cl)cc2)c(C(C)(C)CC)c1 [Example 1348]

IC50 [7]: > 500 nM
Compound: N-{3-[2-({[(4-chlorophenyl)sulfonyl]-2,5-difluoroanilino}methyl)phenoxy]propyl}-N-methyl-1,3-benzodioxole-5-carboxamide [Example 903]

Compound: O=S(=O)(c1ccc(Cl)cc1)N(Cc1ccccc1OCC[S+]([O-])C1CCCCC1)c1cc(F)ccc1F (stereo not shown) [Example 1050, 4-chloro-N-{2-[2-(cyclohexylsulfinyl)ethoxy]benzy}-N-(2,5-difluorophenyl)benzenesulfonamide]
IC50 [7]: > 500 nM

IC50 [2]: 100 to 500 nM
Compound: 2-[2-((1R)-1-{[(4-chlorophenyl)sulfonyl]-2,5-difluoroanilino}ethyl)phenyl]ethyl phenylcarbamate [Example 762]

Compound: C[N+]1(CCCOc2ccccc2CN(c2cc(Cl)ccc2Cl)S(=O)(=O)c2ccc(Cl)cc2)CCCCC1 [Example 1038, 1-{3-[2-((2,5-dichloro[(4-chlorophenyl)sulfonyl]anilino}methyl)phenoxy]propyl}-1-methylpiperidinium iodide]
IC50 [7]: > 500 nM

IC50 [2]: 100 to 500 nM
Compound: N-{3-[2-(1-{[(4-chlorophenyl)sulfonyl]-2,5-difluoroanilino}ethyl)phenoxy]propyl}-4-nitrobenzamide [Example 805]

IC50 [1]: > 500 nM
Compound: O=S(=O)(c1ccc(Cl)cc1)N(Cc1ccccc1OCCCN1CCc2ccccc2C1)c1ccccc1 [Example 999, 4-chloro-N-{2-[3-(3,4-dihydro-2(1H)-isoquinolinyl)propoxy]benzyl}-N-phenylbenzenesulfonamide]
